Assay type in all cases: cell-based, Pseudomonas aeruginosa
Assay [1] has as its system planktonic P. aeruginosa. How it is done: The microbial cell viability was then assayed using the BacTiter-Glo™ luminescent kit. […] No cell reduction was detected for the peptide GL-13 even for the maximum concentration assayed (50 μM).
Bacterial viability was assayed using the BacTiter-Glo™ microbial cell viability kit. Briefly, protein/peptides were dissolved in 10 mM sodium phosphate, 0.1M buffer, pH 7.5, serially diluted from 50 to 0.1 μM and tested in a 96-well microtiter plate containing P. aeruginosa planktonic (OD600˜0.2) or 24 h formed biofilm for 4 h at 37° C. Fifty microliters of BacTiter-Glo™ reagent was added to each well according to the manufacturer's instructions and incubated at room temperature for 15 min. Luminescence was read on a Victor3 plate reader with a 3-s integration time. Fifty percent (ED50) and total inhibitory concentrations were calculated by fitting the data to a dose-response curve.

The subject of assay [2] is planktonic P. aeruginosa. Nature of the assay: SYTOX Green membrane permeabilization assay, planktonic. The settings on record: for Permeabilization %max: 10% Triton X-100 as maximum reference. How it is done:
Further insight into the membrane-permeabilizing effect of the selected AMPs against P. aeruginosa was evaluated by the Sytox Green assay. Local membrane disturbances allow the cell uptake of the fluorescent Sytox Green dye that subsequently stains the cell nucleic acids; the fluorescence increase is registered to monitor the cell membrane permeabilization. Therefore, the half permeabilization action (ED50) was measured, and the total permeabilization activity expressed as a percentage (Table 5). […] On the other hand, WY-12 and CA-M required a 6- to 7-fold greater concentration than RNase 3 to produce half of their permeabilizing effect.
Membrane permeabilization was followed using the method SYTOX Green Fluorescence membrane permeabilization assay. In the planktonic assay, bacterial cells were grown at 37° C. to an OD600=0.2, centrifuged at 5000×g for 5 min, and resuspended in 1×PBS to an OD600=0.2. An aliquot of 200 μl was then transferred to a microtiter plate. For biofilm assay, 24 h formed P. aeruginosa biofilm in a 96-well microtiter plate were washed three times with sterile PBS. SYTOX Green was added to a final concentration of 1 μM and incubated 15 min in darkness. Changes in the fluorescence were continuously recorded after addition of a serially diluted protein/peptides from 50 to 0.1 μM in a Victor3 plate reader. The peptide concentration required to achieve half of total and total membrane permeabilization achieved after 40 min was estimated from nonlinear regression analysis as previously described (Pulido D. et al. Antimicrob Agents Chemother 2013). A maximum reference value was taken for Triton X-100 at 10%.

Assay [3] has as its system pre-established P. aeruginosa biofilm. Nature of the assay: Biofilm eradication assay, crystal violet staining. The settings on record: 24 h formed biofilm; 4 h at 37° C.; 10% Triton X-100 as maximum reference. How it is done:
Following, the biofilm eradication activity was determined (FIG. 1 and Table 6). […] Moreover, the biofilm eradication activity of all the tested reference peptides was well above the maximum concentration tested (50 μM), except for RN3(5-17P22-36) which was able to eradicate the biofilm close to 50 μM.
Biofilm formation assay was modified from the previously described protocol (Huedo P. et al. 2014). Briefly, overnight cultures of P. aeruginosa were centrifuged at 5000×g for 5 min, washed and adjusted to an OD600=0.1 in tryptic soy medium (TSB). Two hundred microliters of the bacterial suspension were dispensed in each well of a polystyrene 96-well microtiter plate (Greiner Bio-one, France). The plate was incubated at 37° C. on an orbital shaker (30 rpm). The media was exchanged with fresh pre-warmed TSB after 4 h, in order to remove the non-attached bacteria. After 24 h incubation, the formation of biofilm was then evaluated using the crystal violet staining technique (Stepanovic S. et al. 2000). Briefly, the plates were washed three times with PBS, fixed at 60° C. for 1 h, and stained for 15 min with 200 μl of 0.1% crystal violet. After the dye was discarded, plates were rinsed in PBS and allowed to dry for 30 min at 37° C. Crystal violet was dissolved in 250 μl of 95% ethanol for 15 min, and the OD570 of the extracted dye was measured using a Victor3 plate reader (Perkin-Elmer, Waltham, Mass.).
Biofilms were grown as above. Twenty-four hour formed P. aeruginosa biofilm was washed three times with sterile PBS, and rinsed with 10 mM sodium phosphate buffer pH 7.5. Each well was treated with increasing protein/peptide concentrations (from 0.01 to 50 μM) and incubated at 37° C. for 4 h. The biofilm eradication was then evaluated using the crystal violet staining technique (Stepanovic S. et al. 2000). The ability of the antimicrobial peptides to disperse and reduce the biofilm mass of preformed biofilms was calculated. The peptide concentration required to achieve total preformed biofilm eradication after 4 h incubation time was estimated. A maximum reference value was taken for Triton X-100 at 10%. The minimum biofilm eradication concentration (MBEC), defined as the protein/peptide concentration where the 99.9% of the biofilm mass is eradicated was estimated.

The test system of assay [4] is planktonic P. aeruginosa. The assay can be described thus: Minimum inhibitory concentration (MIC100) assay. Particulars: 4 h at 37° C., mean ± SEM, max 50 μM. On the procedure: First the peptide ability to inhibit the proliferation of P. aeruginosa cells was assessed by determining the minimum inhibitory concentration (MIC100).
MIC100 of each protein/peptide was determined as described (Torrent M. et al. 2012). Bacteria were incubated at 37° C. overnight in Luria-Bertani broth (LB) and diluted to give approximately 5×10^5 CFU/mL. In each assay protein/peptide serially diluted from 50 to 0.2 μM in 10 mM sodium phosphate, 0.1 M NaCl, buffer pH 7.5 were added to 100 μl bacteria dilution and incubated for 4 h at 37° C. Subsequently, samples were plated onto Petri dishes and incubated at 37° C. overnight. MIC100 values were determined as function of the total growth inhibition by the protein and peptides, from two independent experiments performed in triplicate.

Where [5] appears, read: planktonic P. aeruginosa, 4 h at 37° C., mean ± SEM, N.D. = not detected at 50 μM, read-out: IC50 (50% bacterial viability).

As usually defined, the IC50 is the concentration at which inhibition is half-maximal.

Converted amounts (≈) assume the structure as drawn. Read-outs that look alike come from different tables or passages of the source. Residues, ends and D or L forms follow the SMILES beside them.

Regarding `CC[C@H](C)[C@H](NC(=O)CNC(=O)[C@@H](NC(=O)[C@H](CCCCN)NC(=O)[C@H](CCCCN)NC(=O)[C@H](Cc1ccccc1)NC(=O)[C@H](CC(C)C)NC(=O)[C@H](CCCCN)NC(=O)[C@H](Cc1c[nH]c2ccccc12)NC(=O)[C@@H](N)CCCCN)[C@@H](C)CC)C(=O)NCC(=O)N[C@@H](C)C(=O)N[C@H](C(=O)N[C@@H](CC(C)C)C(=O)N[C@@H](CCCCN)C(=O)N[C@H](C(=O)N[C@@H](CC(C)C)C(=O)N[C@H](C(=O)N[C@H](C(=O)NCC(=O)N[C@@H](CC(C)C)C(=O)N1CCC[C@H]1C(=O)N[C@@H](C)C(=O)N[C@@H](CC(C)C)C(=O)N[C@H](C(=O)N[C@@H](CO)C(N)=O)[C@@H](C)CC)[C@@H](C)O)[C@@H](C)O)C(C)C)C(C)C` [CA-M], in assay [1] (setting [5]), the IC50 was 2.54 ± 1.08 µM. Also, the Permeabilization %max in assay [2] is recorded as 34.69 ± 2.18%. For the same compound, the “Biofilm eradication (%max)” value in assay [3] is 53.03 ± 1.46%. The compound also displayed an MIC100 in assay [4] of 6.00 ± 0.05 µM (≈ 16.8 µg/mL).
Turning to `CC[C@H](C)[C@H](NC(=O)[C@H](CCCCN)NC(=O)[C@H](CCC(=O)O)NC(=O)[C@H](CCCCN)NC(=O)[C@H](CO)NC(=O)[C@H](CCCCN)NC(=O)[C@H](CCCNC(=N)N)NC(=O)[C@H](Cc1ccccc1)NC(=O)[C@H](Cc1ccccc1)NC(=O)[C@H](CC(=O)O)NC(=O)CNC(=O)[C@H](CC(C)C)NC(=O)[C@@H](N)CC(C)C)C(=O)NCC(=O)N[C@@H](CCCCN)C(=O)N[C@@H](CCC(=O)O)C(=O)N[C@@H](Cc1ccccc1)C(=O)N[C@@H](CCCCN)C(=O)N[C@@H](CCCNC(=N)N)C(=O)N[C@H](C(=O)N[C@H](C(=O)N[C@@H](CCC(N)=O)C(=O)N[C@@H](CCCNC(=N)N)C(=O)N[C@H](C(=O)N[C@@H](CCCCN)C(=O)N[C@@H](CC(=O)O)C(=O)N[C@@H](Cc1ccccc1)C(=O)N[C@@H](CC(C)C)C(=O)N[C@@H](CCCNC(=N)N)C(=O)N[C@@H](CC(N)=O)C(=O)N[C@@H](CC(C)C)C(=O)N[C@H](C(=O)N1CCC[C@H]1C(=O)N[C@@H](CCCNC(=N)N)C(=O)N[C@H](C(=O)N[C@@H](CCC(=O)O)C(=O)N[C@@H](CO)C(N)=O)[C@@H](C)O)C(C)C)[C@@H](C)CC)C(C)C)[C@@H](C)CC` [LL-37], the IC50 in assay [1] (setting [5]) stood at 2.28 ± 0.22 µM. Besides, the Permeabilization %max in assay [2] came out at 38.80 ± 1.13%. In assay [3], the “Biofilm eradication (%max)” value was 35.54 ± 1.13%. This compound also displayed an MIC100 in assay [4] of 6.00 ± 0.05 µM (≈ 27 µg/mL).
Take `CC[C@H](C)[C@H](NC(=O)[C@H](CCC(N)=O)NC(=O)CN)C(=O)N[C@H](C(=O)N[C@@H](CC(N)=O)C(=O)N[C@@H](CC(C)C)C(=O)N[C@@H](CCCCN)C(=O)N[C@@H](C)C(=O)N[C@@H](CO)C(=O)N[C@@H](CC(C)C)C(=O)N[C@@H](CC(=O)O)C(=O)N[C@@H](CC(C)C)C(=O)N[C@@H](CC(C)C)C(N)=O)[C@@H](C)CC` [GL-13, GQIINLKASLDLL-NH2] (H-GQIINLKASLDLL-NH2): the IC50 in assay [1] (planktonic, 4 h) was above 50 µM. Moreover, the “Permeabilization ED50” value in assay [2] (40 min, N.D. = not detected at 50 μM) is recorded as “unable to perform any cell membrane permeabilization”. Also, in assay [3], the “Biofilm eradication (%max)” value is listed as 33.28 ± 1.07%. Also, the MIC100 in assay [4] was above 50 µM.

These data come from patent publication US10487117B2, “Antimicrobial peptide for nosocomial infections” (priority 2015, dated 2019).
